Experiment: Release of the antibiotic from the salts in an aqueous environment (finding in words)
Format: physicochemical
Conditions: method not given

Release of the underlying antibiotic in an aqueous environment, in a delayed fashion:
Amikacin laurate
amikacin dodecyl sulfate
amikacin myristate
